Source: patent publication US20060002934A1 (priority 2002, published 2006)

What was measured:
[1] = test system: parental, wt and mutant E-cadherin expressing MDA-MB-435S cells; assay: Colony formation assay; format: cell-based, human; details: 2 h treatment, colonies counted after 7 days; parental vs wt vs mutant E-cadherin cells
Method: Chemosensitivity to cisplatin, etoposide and 5-FU of parental, wt and mutant E-cadherin expressing MDA-MB-435S cells was investigated by colony formation assay. Cells were seeded at a density of 2×10^3 cells per 6-well and treated 3 h later for 2 h with cisplatin, etoposide or 5-FU. Colonies were fixed and stained after 7 days with Diff Quick Reagent (Dade Behring, Liederbach, Germany) and the colony number was determined with Scion Image Software from Scion Corporation (Frederick, USA). The percentage of colonies was determined corresponding to non-treated cells.

[2] = test system: parental, wt and mutant E-cadherin expressing MDA-MB-435S cells; assay: Sensitivity profiling by XTT-cell proliferation and viability assay; format: cell-based, human; details: 48 h treatment, increasing concentrations; parental vs wt vs mutant E-cadherin cells
Method: Cells were seeded at a density of […] cells per well in 96-well microtiter plates (Nunc, Wiesbaden-Biebrich, Germany) in 100 μl DMEM with 10% FCS per-well, and cell proliferation was investigated by XTT-cell proliferation and viability assay (Roche Molecular Biochemicals, Mannheim, Germany). After 24, 48 and 72 h, 50 μl XTT labeling mixture was added. The cleavage of the tetrazolium salt XTT to form a formazan dye that occurs in metabolically active viable cells was quantified spectrophotometrically by measuring the absorbance of the formazan product at 450 nm by an ELISA plate reader. The absorbance values obtained when culture medium without cells was assayed was subtracted from the values obtained with cells. Quadruplicate determinations were performed for each time point. The sensitivity of parental, wt and mutant E-cadherin expressing MDA-MB-435S cells to the chemotherapeutic agents cisplatin, etoposide and 5-FU was investigated by XTT-cell proliferation and viability assay as described above. […] After 48 h, 50 μXTT labeling mixture was added and the absorbance values at 450 nm were measured spectrophotometrically by an ELISA plate reader. The absorbance values obtained when culture medium without cells was assayed, were subtracted from the values obtained with cells. […] The percentage of viable cells was determined corresponding to non-treated cells.

N.N.[Cl][Pt][Cl] [cisplatin]
sensitivity profile, colony formation [1]: reduced sensitivity of wt or mutant E-cadherin expressing MDA-MB-435S cells as compared to parental cells
sensitivity profile, cell survival by XTT assay [2]: reduced sensitivity of wt or mutant E-cadherin expressing MDA-MB-435S cells as compared to parental cells
